According to US7842711B2, “Indazolecarboxamide derivatives for the treatment and prevention of malaria” (Sanofi-Aventis, priority 2004, dated 2010):
Counter-ions that a name gives are not always drawn. Like-named read-outs stand apart in the source and are kept apart here.

What was measured:
[1] = tested on: P. falciparum strain FcM29 (highly resistant to chloroquine); assay: antimalarial activity assay, radioactive micromethod of Desjardins (tritiated hypoxanthine incorporation), strain FcM29; assay type: cell-based; details: Plasmodium falciparum, Erythrocyte, read-out: IC50 (concentration of the compound required to inhibit the parasite growth by 50%)
Procedure: Two strains of P. falciparum are used, the origin of which is Colombia (FcB1, strain moderately resistant to chloroquine) and Cameroon (FcM29, strain highly resistant to chloroquine). These strains of P. falciparum are cultured continuously in human red blood cells according to the method of Trager and Jensen (W. Trager, J. Jensen, Science, 1976, 193, 673-675): the parasites are maintained in human red blood cells (O±), diluted to 2% parasiteamia in an RPMI 1640 medium supplemented with 25 mM of Hepes, 24 mM of NaHCO3 and 2 mM of L-glutamine, and supplemented with 5% of human serum of all groups. The parasites are incubated at 37° C. in a humid atmosphere and at 5% CO2.
The antimalarial activity assays are carried out according to the radioactive micromethod of Desjardins (R. E. Desjardins, C. J. Canfield, J. D. Haynes, J. D. Chulay, Antimicrob. Agents Chemother., 1979, 16, 710-718). Each molecule is tested in triplicate. The assays are carried out in 96-well microplates. The strains of P. falciparum are cultured in solutions of RPMI 1640 supplemented with 5% of human serum with a 2% haematocrit and a 1.5% parasitaemia. For each assay, the parasites are incubated with decreasing concentrations of compounds of formula (I) for 48 h at 37° C. in a humid atmosphere and at 5% CO2.
The first dilution of the test compound is prepared at 1 mg/ml in dimethyl sulphoxide. The dilution range for the successive daughter solutions is also prepared in dimethyl sulphoxide. Each daughter dilution is subsequently diluted to 1/50 in RPMI 1640 supplemented with 5% of human serum, all the dilutions being prepared at 37° C. These dilutions are then added to the parasites in culture in the microplates. After addition of the test compound, the parasites are in culture in RPMI 1640 containing 5% of human serum and 1% of dimethyl sulphoxide. The parasite growth is measured by the incorporation of tritiated hypoxanthine (added 24 h after the beginning of exposure to the test compound) compared with incorporation in the absence of the test compound (taken as 100%). The IC50 values (concentration of the compound required to inhibit the parasite growth by 50%) are determined by plotting the percentage inhibition as a function of the log of the dose by means of the GraphPad Prism 4® processing software (GraphPad software, Inc., 5755 Oberlin Drive, # 110, San Diego, Calif. 92121, USA).

[2] = strain FcM29, 48 h incubation in human red blood cells, tritiated hypoxanthine incorporation

Row | IC50 [1, 2] | melting point | Compound | IC50 ([1]; 48 h)
1 | 800 nM | > 250 °C | O=C(Nc1ccncc1)c1n[nH]c2ccc(-c3cn[nH]c3)cc12 [Compound No. 11, 5-(1H-Pyrazol-4-yl)-N-(pyridin-4-yl)-1H-indazole-3-carboxamide] | –
2 | 800 nM | > 250 °C | O=C(Nc1ccncc1)c1n[nH]c2ccc(-c3ccc(Cl)nc3)cc12 [compound 12, 5-(6-chloropyridin-3-yl)-N-pyridin-4-yl-1H-indazole-3-carboxamide] | –
3 | 406 nM | > 250 °C | CCNCc1cccc(NC(=O)c2n[nH]c3ccc(-c4cncc5[nH]ccc45)cc23)c1 [compound 21, N-{3-[(ethylamino)methyl]phenyl}-5-(1H-pyrrolo[2,3-c]pyridin-4-yl)-1H-indazole-3-carboxamide] | –
4 | 130 nM | > 250 °C | O=C(Nc1ccncc1)c1n[nH]c2ccc(-c3cncc4[nH]ccc34)cc12 [Compound No. 10, N-(Pyridin-4-yl)-5-(1H-pyrrolo[2,3-c]pyridin-4-yl)-1H-indazole-3-carboxamide] | –

The remaining lines, values behind:

Row | Compound | IC50 [1, 2] | melting point | IC50 ([1]; 48 h)
5 | CCNCc1cccc(NC(=O)c2n[nH]c3ccc(-c4cncc5ccccc45)cc23)c1 [Compound No. 14, N-{3-[(Ethylamino)methyl]phenyl}-5-isoquinolin-4-yl-1H-indazole-3-carboxamide dihydrochloride] | – | – | 272 nM
6 | O=C(Nc1ccncc1)c1n[nH]c2ccc(-c3cncc4ccccc34)cc12 [Compound No. 3, N-(Pyridin-4-yl)-5-isoquinolin-4-yl-1H-indazole-3-carboxamide] | 600 nM | > 250 °C | –
7 | CCNCc1cccc(NC(=O)c2n[nH]c3ccc(-c4cncc5ccccc45)cc23)c1 (as salt: HCl) [Compound No. 14, N-{3-[(Ethylamino)methyl]phenyl}-5-isoquinolin-4-yl-1H-indazole-3-carboxamide dihydrochloride] | – | > 135 °C | –
